For this test, the system named is caudate lesioned mouse. The test is described as follows: caudate lesioned mouse test (anti-parkinson activity). As to conditions: for ED50: caudate lesioned mouse, read-out: ED50; for responders at 6.5 µmol/kg / responders at 26 µmol/kg / responders at 1.6 µmol/kg / responders at 3.2 µmol/kg / responders at 6 µmol/kg / responders at 208 µmol/kg / responders at 416 µmol/kg / responders at 52 µmol/kg / responders at 104 µmol/kg: Mus musculus; for responders at 6.5 µmol/kg: dose 0.0065 m. mole/kg; for responders at 1.6 µmol/kg: dose 0.0016 m. mole/kg; for responders at 3.2 µmol/kg: dose 0.0032 m. mole/kg; for responders at 6 µmol/kg: dose 0.006 m. mole/kg; for responders at 208 µmol/kg: dose 0.208 m. mole/kg; for responders at 416 µmol/kg: dose 0.416 m. mole/kg; for Molar Potency Ratio Claimed/Ref. Ester: claimed N-propyl ester vs corresponding N-methyl reference ester. It is filed as in vivo. The method, boiled down: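 Mice with unilateral caudate lesions, recovered ≥14 days, kept only if circling toward lesion in all three periods after apomorphine 1.7 mg/kg i.p. Test drugs given in 1% gum tragacanth; doses as mg/kg free base.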

Setting [1] is: 0.5 h, 1/2 h post-drug, read-out: No. Mice Affected/No. Mice Tested, 1/2 h.
Setting [2] is: 0.5 h, dose 0.026 m. mole/kg, 1/2 h post-drug, read-out: No. Mice Affected/No. Mice Tested, 1/2 h (converted).
Setting [3] is: 1 h post-drug, read-out: No. Mice Affected/No. Mice Tested, 1 h.
Setting [4] is: 2 h post-drug, read-out: No. Mice Affected/No. Mice Tested, 2 h.
[5] abbreviates: 4 h post-drug, read-out: No. Mice Affected/No. Mice Tested, 4 h.
Setting [6] is: 6 h post-drug, read-out: No. Mice Affected/No. Mice Tested, 6 h.
Where [7] appears, read: 24 h post-drug, read-out: No. Mice Affected/No. Mice Tested, 24 h.
Setting [8] is: total, read-out: No. Mice Affected/No. Mice Tested, Total.
The mark [9] stands for this setting: dose 0.026 m. mole/kg, 1 h post-drug, read-out: No. Mice Affected/No. Mice Tested, 1 h (converted).
Setting [10] is: dose 0.026 m. mole/kg, 2 h post-drug, read-out: No. Mice Affected/No. Mice Tested, 2 h (converted).
[11] abbreviates: dose 0.026 m. mole/kg, 4 h post-drug, read-out: No. Mice Affected/No. Mice Tested, 4 h (converted).
[12] abbreviates: dose 0.026 m. mole/kg, 6 h post-drug, read-out: No. Mice Affected/No. Mice Tested, 6 h (converted).
The mark [13] stands for this setting: dose 0.026 m. mole/kg, 24 h post-drug, read-out: No. Mice Affected/No. Mice Tested, 24 h.
Setting [14] is: dose 0.026 m. mole/kg, total, read-out: No. Mice Affected/No. Mice Tested, Total (converted).
The mark [15] stands for this setting: 1 h post-drug, read-out: No. Mice Affected/No. Mice Tested, 1 h (converted).
[16] abbreviates: 2 h post-drug, read-out: No. Mice Affected/No. Mice Tested, 2 h (converted).
The mark [17] stands for this setting: 4 h post-drug, read-out: No. Mice Affected/No. Mice Tested, 4 h (converted).
Setting [18] is: total, read-out: No. Mice Affected/No. Mice Tested, Total (converted).
Setting [19] is: 6 h post-drug, read-out: No. Mice Affected/No. Mice Tested, 6 h (converted).
[20] abbreviates: 0.5 h, 1/2 h post-drug, read-out: No. Mice Affected/No. Mice Tested, 1/2 h (converted).
Where [21] appears, read: 0.5 h, read-out: No. Mice Affected/No. Mice Tested, 1/2 h.
Setting [22] is: 1 h, read-out: No. Mice Affected/No. Mice Tested, 1 h.
Setting [23] is: 4 h, read-out: No. Mice Affected/No. Mice Tested, 4 h.
[24] abbreviates: 6 h, read-out: No. Mice Affected/No. Mice Tested, 6 h.
[25] abbreviates: 24 h, read-out: No. Mice Affected/No. Mice Tested, 24 h.
The mark [26] stands for this setting: read-out: No. Mice Affected/No. Mice Tested, Total.

The text below walks through data of patent publication US4126616A, “N-propylnorapomorphine diesters” (Hinshaw; William B., priority 1976, dated 1978).

The structures appear in SMILES notation. Counter-ions that a name gives are not always drawn. Like-named read-outs stand apart in the source and are kept apart here.

As for `CCCN1CCc2cccc3c2C1Cc1ccc(OC(=O)c2ccc(OC)cc2)c(OC(=O)c2ccc(OC)cc2)c1-3` (centres unmarked) [Ex. 1J, N-Propylnorapomorphine bis-4-methoxybenzoate], the ED50 (usually the midpoint of the dose-response relation) came to 13 µmol/kg. Further, the responders at 6.5 µmol/kg under setting [1] is 0%. Besides, the responders at 26 µmol/kg under setting [2] is 50%. The responders at 6.5 µmol/kg under setting [3] came to 0%. Moreover, under setting [4], the responders at 6.5 µmol/kg stood at 0%. Also, the responders at 6.5 µmol/kg under setting [5] turned out to be 0%. In addition, the responders at 6.5 µmol/kg under setting [6] is 0%. Further, the responders at 6.5 µmol/kg under setting [7] came out at 0%. Besides, the responders at 6.5 µmol/kg under setting [8] was found to be 0%. Also, the responders at 26 µmol/kg under setting [9] is 100%. The responders at 26 µmol/kg under setting [10] was 75%. For the same compound, the responders at 26 µmol/kg under setting [11] is 50%. Moreover, the responders at 26 µmol/kg under setting [12] was 50%. The responders at 26 µmol/kg under setting [13] came out at 0%. For the same compound, under setting [14], the responders at 26 µmol/kg is 100%.
Regarding `CCCN1CCc2cccc3c2C1Cc1ccc(OC(=O)c2cc(OC)cc(OC)c2)c(OC(=O)c2cc(OC)cc(OC)c2)c1-3` (centres unmarked) [Ex. 1K, N-Propylnorapomorphine bis-3,5-dimethoxybenzoate hydrochloride], the responders at 1.6 µmol/kg stood at 0% under setting [1]; 0% under setting [3]; 0% under setting [4]; 0% under setting [5]; 0% under setting [6]; 0% under setting [7]. Besides, the responders at 1.6 µmol/kg under setting [8] came out at 0%. In addition, the responders at 3.2 µmol/kg under setting [1] turned out to be 0%; the responders at 3.2 µmol/kg under setting [15] was 25%; the responders at 3.2 µmol/kg under setting [16] is 50%; the responders at 3.2 µmol/kg under setting [17] was 50%; the responders at 3.2 µmol/kg under setting [6] is 0%; the responders at 3.2 µmol/kg under setting [7] came out at 0%. Moreover, under setting [18], the responders at 3.2 µmol/kg is 50%. Besides, the responders at 6 µmol/kg runs as follows: under setting [1], 0%; under setting [3], 0%; under setting [16], 75%; under setting [17], 75%; under setting [19], 50%; under setting [7], 0%. Also, the responders at 6 µmol/kg under setting [18] was 75%. For the same compound, the responders at 26 µmol/kg runs as follows: under setting [2], 50%; under setting [9], 100%; under setting [10], 50%; under setting [11], 50%; under setting [12], 50%; under setting [13], 0%. Moreover, the responders at 26 µmol/kg under setting [14] was 100%.
Turning to `CCCCC(=O)Oc1ccc2c(c1OC(=O)CCCC)-c1cccc3c1C(C2)N(C)CC3` (centres unmarked) [Ref. 2A, reference compound], the responders at 208 µmol/kg runs as follows: under setting [20], 0%; under setting [3], 0%; under setting [17], 0%; under setting [19], 0%; (24 h post-drug, read-out: No. Mice Affected/No. Mice Tested, 24 h (converted)) 0%; under setting [18], 0%. Further, the responders at 416 µmol/kg by setting is: under setting [20], 33.3%; under setting [15], 0%; under setting [17], 0%; under setting [19], 0%; under setting [7], 0%; under setting [18], 33.3%.
For `CCCN1CCc2cccc3c2C1Cc1ccc(OC(C)=O)c(OC(C)=O)c1-3` (centres unmarked) [Ex. 2, N-propylnorapomorphine diacetate], the “Molar Potency Ratio Claimed/Ref. Ester” value is on record as ≥ 16. Further, under setting [21], the responders at 26 µmol/kg is 100%, the responders at 52 µmol/kg is 25% and the responders at 104 µmol/kg was 50%. Under setting [22], the responders at 26 µmol/kg is 100%, the responders at 52 µmol/kg is 25% and the responders at 104 µmol/kg is 75%. Moreover, under setting [23], the responders at 26 µmol/kg was 50%, the responders at 52 µmol/kg is 25% and the responders at 104 µmol/kg is 25%. Under setting [24], the responders at 26 µmol/kg is 100%, the responders at 52 µmol/kg is 75% and the responders at 104 µmol/kg is 50%. In addition, under setting [25], the responders at 26 µmol/kg is 50%, the responders at 52 µmol/kg came to 0% and the responders at 104 µmol/kg is 50%. Under setting [26], the responders at 26 µmol/kg was 100%, the responders at 52 µmol/kg is 75% and the responders at 104 µmol/kg was 75%.
Turning to `CCCN1CCc2cccc3c2C1Cc1ccc(OC(=O)c2ccccc2C)c(OC(=O)c2ccccc2C)c1-3` (centres unmarked) [Ex. 1G, N-Propylnorapomorphine bis-2-methylbenzoate], the 50% effective dose (ED50) turned out to be 26 µmol/kg. Under setting [2], the responders at 26 µmol/kg was 25%. Moreover, under setting [9], the responders at 26 µmol/kg was 50%. Moreover, the responders at 26 µmol/kg under setting [10] was 50%. Also, the responders at 26 µmol/kg under setting [11] was 50%. For the same compound, the responders at 26 µmol/kg under setting [12] is 50%. For the same compound, the responders at 26 µmol/kg under setting [13] came to 0%. The responders at 26 µmol/kg under setting [14] was 50%.
`CCCN1CCc2cccc3c2C1Cc1ccc(OC(=O)C(C)(C)C)c(OC(=O)C(C)(C)C)c1-3` (centres unmarked) [Ex. 1C, N-Propylnorapomorphine dipivaloate]: the “Molar Potency Ratio Claimed/Ref. Ester” value is ≥ 16. The responders at 26 µmol/kg under setting [2] is 0%. For the same compound, the responders at 26 µmol/kg under setting [9] was 0%. Besides, the responders at 26 µmol/kg under setting [11] is 100%. Besides, the responders at 26 µmol/kg under setting [12] was 100%. Also, under setting [13], the responders at 26 µmol/kg came out at 0%. Besides, under setting [14], the responders at 26 µmol/kg is 100%.
